Key:
Experiment in all cases: relative viability (nuclei count vs DMSO), 5 days (fraction); higher = more cells survive
NCI-H2405 = tested on: NCI-H2405
How it was run: (§1)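 Cells from lung cancer lines were seeded into 1536-well plates and, one day later, dosed by pin tool. Treatments were either a single drug or a fixed dose of an anchor drug with five library-drug doses (not always all listed) in √10 steps. After 5 days, nuclei were stained in a one-step fixation (final 0.05% Triton X-100, 1% formaldehyde, 1 ug/ml Hoechst) and counted on 4× images, and relative viability is the treated-to-vehicle nuclei ratio, as the median of duplicate plates.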

NCI-H1437 = tested on: NCI-H1437
How it was run: as §1

ABC-1 = tested on: ABC-1
How it was run: as §1

SK-MES-1 = tested on: SK-MES-1
How it was run: as §1

PC-3 [JPC-3] = tested on: PC-3 [JPC-3]
How it was run: as §1

EKVX = tested on: EKVX
How it was run: as §1

COR-L23 = tested on: COR-L23
How it was run: as §1

NCI-H520 = tested on: NCI-H520
How it was run: as §1

NCI-H1651 = tested on: NCI-H1651
How it was run: as §1

CAL-12T = tested on: CAL-12T
How it was run: as §1

SW 1573 = tested on: SW 1573
How it was run: as §1

NCI-H2228 = tested on: NCI-H2228
How it was run: as §1

NCI-H322M = tested on: NCI-H322M
How it was run: as §1

NCI-H661 = tested on: NCI-H661
How it was run: as §1

RERF-LC-KJ = tested on: RERF-LC-KJ
How it was run: as §1

NCI-H1734 = tested on: NCI-H1734
How it was run: as §1

H3255 = tested on: H3255
How it was run: as §1

NCI-H1563 = tested on: NCI-H1563
How it was run: as §1

LK-2 = tested on: LK-2
How it was run: as §1

HCC-827 = tested on: HCC-827
How it was run: as §1

HCC-15 = tested on: HCC-15
How it was run: as §1

NCI-H1355 = tested on: NCI-H1355
How it was run: as §1

PC-14 = tested on: PC-14
How it was run: as §1

NCI-H1650 = tested on: NCI-H1650
How it was run: as §1

## C[C@@H]1CN(CC(=O)Nc2ccc3c(c2)Cc2cccc(-c4cc(=O)cc(N5CCOCC5)o4)c2S3)C[C@H](C)O1 + COc1cccc2cc(-c3nc([C@H]4CC[C@H](C(=O)O)CC4)n4ncnc(N)c34)[nH]c12 [OSI-027] (partner 0.5 µM)
NCI-H2405; first compound 0.04 µM
  relative viability: 0.632
NCI-H2405; first compound 0.1265 µM
  relative viability: 0.699
NCI-H2405; first compound 0.4 µM
  relative viability: 0.528
NCI-H2405; first compound 4 µM
  relative viability: 0.615
NCI-H1437; first compound 0.04 µM
  relative viability: 0.918
NCI-H1437; first compound 0.1265 µM
  relative viability: 0.881
NCI-H1437; first compound 0.4 µM
  relative viability: 0.864
NCI-H1437; first compound 4 µM
  relative viability: 0.747
ABC-1; first compound 0.1265 µM
  relative viability: 0.541
ABC-1; first compound 0.4 µM
  relative viability: 0.466
ABC-1; first compound 4 µM
  relative viability: 0.439
SK-MES-1; first compound 0.04 µM
  relative viability: 0.664
SK-MES-1; first compound 0.1265 µM
  relative viability: 0.566
SK-MES-1; first compound 0.4 µM
  relative viability: 0.503
SK-MES-1; first compound 4 µM
  relative viability: 0.49
PC-3 [JPC-3]; first compound 0.04 µM
  relative viability: 0.81
PC-3 [JPC-3]; first compound 0.1265 µM
  relative viability: 0.815
PC-3 [JPC-3]; first compound 0.4 µM
  relative viability: 0.66
PC-3 [JPC-3]; first compound 4 µM
  relative viability: 0.577
EKVX; first compound 0.04 µM
  relative viability: 0.713
EKVX; first compound 0.1265 µM
  relative viability: 0.676
EKVX; first compound 0.4 µM
  relative viability: 0.712
EKVX; first compound 4 µM
  relative viability: 0.618
COR-L23; first compound 0.04 µM
  relative viability: 0.782
COR-L23; first compound 0.1265 µM
  relative viability: 0.776
COR-L23; first compound 0.4 µM
  relative viability: 0.73
COR-L23; first compound 4 µM
  relative viability: 0.717
NCI-H520; first compound 0.04 µM
  relative viability: 0.272
NCI-H520; first compound 0.1265 µM
  relative viability: 0.227
NCI-H520; first compound 0.4 µM
  relative viability: 0.221
NCI-H520; first compound 4 µM
  relative viability: 0.264
NCI-H1651; first compound 0.04 µM
  relative viability: 0.694
NCI-H1651; first compound 0.1265 µM
  relative viability: 0.836
NCI-H1651; first compound 0.4 µM
  relative viability: 0.741
NCI-H1651; first compound 4 µM
  relative viability: 0.585
CAL-12T; first compound 0.04 µM
  relative viability: 0.734
CAL-12T; first compound 0.1265 µM
  relative viability: 0.675
CAL-12T; first compound 0.4 µM
  relative viability: 0.561
CAL-12T; first compound 4 µM
  relative viability: 0.237
SW 1573; first compound 0.04 µM
  relative viability: 0.796
SW 1573; first compound 0.1265 µM
  relative viability: 0.72
SW 1573; first compound 0.4 µM
  relative viability: 0.465
SW 1573; first compound 4 µM
  relative viability: 0.604
NCI-H2228; first compound 0.04 µM
  relative viability: 0.659
NCI-H2228; first compound 0.1265 µM
  relative viability: 0.705
NCI-H2228; first compound 0.4 µM
  relative viability: 0.483
NCI-H2228; first compound 4 µM
  relative viability: 0.335
NCI-H322M; first compound 0.04 µM
  relative viability: 0.485
NCI-H322M; first compound 0.1265 µM
  relative viability: 0.643
NCI-H322M; first compound 0.4 µM
  relative viability: 0.5
NCI-H322M; first compound 4 µM
  relative viability: 0.493
NCI-H661; first compound 0.04 µM
  relative viability: 0.694
NCI-H661; first compound 0.1265 µM
  relative viability: 0.701
NCI-H661; first compound 0.4 µM
  relative viability: 0.646
NCI-H661; first compound 4 µM
  relative viability: 0.666
RERF-LC-KJ; first compound 0.04 µM
  relative viability: 0.757
RERF-LC-KJ; first compound 0.1265 µM
  relative viability: 0.583
RERF-LC-KJ; first compound 0.4 µM
  relative viability: 0.534
RERF-LC-KJ; first compound 4 µM
  relative viability: 0.49
NCI-H1734; first compound 0.04 µM
  relative viability: 0.655
NCI-H1734; first compound 0.1265 µM
  relative viability: 0.598
NCI-H1734; first compound 0.4 µM
  relative viability: 0.48
NCI-H1734; first compound 4 µM
  relative viability: 0.67
H3255; first compound 0.04 µM
  relative viability: 0.599
H3255; first compound 0.1265 µM
  relative viability: 0.624
H3255; first compound 0.4 µM
  relative viability: 0.48
H3255; first compound 4 µM
  relative viability: 0.491
NCI-H1563; first compound 0.04 µM
  relative viability: 0.765
NCI-H1563; first compound 0.1265 µM
  relative viability: 0.71
NCI-H1563; first compound 0.4 µM
  relative viability: 0.689
NCI-H1563; first compound 4 µM
  relative viability: 0.72
LK-2; first compound 0.04 µM
  relative viability: 0.196
LK-2; first compound 0.1265 µM
  relative viability: 0.207
LK-2; first compound 0.4 µM
  relative viability: 0.162
LK-2; first compound 4 µM
  relative viability: 0.257
HCC-827; first compound 0.04 µM
  relative viability: 0.775
HCC-827; first compound 0.1265 µM
  relative viability: 0.738
HCC-827; first compound 0.4 µM
  relative viability: 0.509
HCC-827; first compound 4 µM
  relative viability: 0.746
HCC-15; first compound 0.04 µM
  relative viability: 0.76
HCC-15; first compound 0.1265 µM
  relative viability: 0.606
HCC-15; first compound 0.4 µM
  relative viability: 0.485
HCC-15; first compound 4 µM
  relative viability: 0.524
NCI-H1355; first compound 0.04 µM
  relative viability: 0.447
NCI-H1355; first compound 0.1265 µM
  relative viability: 0.472
NCI-H1355; first compound 0.4 µM
  relative viability: 0.321
NCI-H1355; first compound 4 µM
  relative viability: 0.335
PC-14; first compound 0.04 µM
  relative viability: 1.02
PC-14; first compound 0.1265 µM
  relative viability: 0.761
PC-14; first compound 0.4 µM
  relative viability: 0.744
PC-14; first compound 4 µM
  relative viability: 0.653
NCI-H1650; first compound 0.04 µM
  relative viability: 0.761
NCI-H1650; first compound 0.1265 µM
  relative viability: 0.662
NCI-H1650; first compound 0.4 µM
  relative viability: 0.591
NCI-H1650; first compound 4 µM
  relative viability: 0.449

Source: the supplement of paper PMC10307832
